In paper PMC12093506, “Synthesis, characterization, and in vitro and in silico α-glucosidase inhibitory evolution of novel N′-(2-cyclopentyl-2-phenylacetyl)cinnamohydrazide derivatives” (RSC Advances, 2025):
Read-outs that look alike come from different tables or passages of the source. One block for each compound: values may come before it.

Experiments:
[1] = target: T1, α-glucosidase (maltase) enzyme from Yeast (Saccharomyces cerevisiae, UniProt P53341); assay: biochemical; type: biochemical
T1 construct: purchased Sisco Research Laboratories Pvt; Ltd
T1 sequence (P53341 whole entry): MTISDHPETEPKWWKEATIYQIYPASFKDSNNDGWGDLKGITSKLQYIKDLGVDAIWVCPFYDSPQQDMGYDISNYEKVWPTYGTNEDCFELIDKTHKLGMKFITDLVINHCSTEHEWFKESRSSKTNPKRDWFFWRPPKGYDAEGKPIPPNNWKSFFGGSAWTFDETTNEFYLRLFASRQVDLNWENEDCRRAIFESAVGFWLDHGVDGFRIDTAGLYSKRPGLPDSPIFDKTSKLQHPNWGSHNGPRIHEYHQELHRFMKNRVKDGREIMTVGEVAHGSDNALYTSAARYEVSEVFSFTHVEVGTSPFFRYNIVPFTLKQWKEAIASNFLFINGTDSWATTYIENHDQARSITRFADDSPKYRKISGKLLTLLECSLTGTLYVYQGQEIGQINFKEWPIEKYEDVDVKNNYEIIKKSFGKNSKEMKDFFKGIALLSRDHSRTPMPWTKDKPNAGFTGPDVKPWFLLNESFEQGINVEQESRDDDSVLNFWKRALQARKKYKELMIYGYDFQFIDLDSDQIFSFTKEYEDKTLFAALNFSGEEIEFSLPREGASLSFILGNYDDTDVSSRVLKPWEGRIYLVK
Protocol: The test compounds were evaluated for their α-glucosidase inhibitory activity following the methodology outlined by Pistia et al.[62] and Bhatia et al.[63] […] The compounds at varied concentrations ranging from 50 to 200 μg mL^−1 were combined with 50 μL of α-glucosidase (maltase) enzyme solution (1 U mL^−1) from Yeast (Sisco Research Laboratories Pvt. Ltd). The mixer was placed at a temperature of 37 °C for duration of 15 minutes, after the addition of 0.1 M phosphate buffer (pH 6.8). Afterward, 25 μl of substrate buffer was introduced into the system to initiate the reaction, and the incubation was prolonged at a temperature of 37 °C for a length of 15 minutes. Finally, the reaction was stopped by adding 50 μl of a 0.2 M sodium carbonate solution, thereby terminating the processes. The measurement was determined at a wavelength of 450 nm. […] The measurement of enzyme activity was carried out as follows.
The formula for calculating the percentage is (ODblank − ODsample) divided by ODblank, multiplied by 100.
A unit of enzyme may be accurately defined as the amount of α-glucosidase enzyme required to generate one micromole of p-nitrophenol (product) from p-nitrophenyl-α-D-glucopyranoside (substrate) for a time of one minute. The IC50, representing the concentration required to inhibit 50% of the enzyme activity, was determined by fitting a regression equation to a graph that plotted concentration (varying from 50–200 μg mL^−1) on the X-axis and percentage of inhibition on the Y-axis for various fractions and extracts.

α-glucosidase = conditions: cited from earlier work
[2] = yeast α-glucosidase (maltase) 1 U mL^−1, phosphate buffer pH 6.8, 37 °C
[3] = yeast α-glucosidase (maltase) 1 U mL^−1, phosphate buffer pH 6.8, 37 °C, read-out: IC50 (α-glucosidase inhibition)
[4] = hydrazine-type compounds, Fig. 1
[5] = compounds with phenyl rings, Fig. 1

Compound: O=C(C=Cc1ccccc1)NNC(=O)C(c1ccccc1)C1CCCC1 (centres unmarked) [Compound 6a, N′-(2-Cyclopentyl-2-phenylacetyl)cinnamohydrazide]
IC50 [1]: 79.8 nM

Compound: O=C(C=Cc1ccccc1Br)NNC(=O)C(c1ccccc1)C1CCCC1 (centres unmarked) [Compound 6b, 3-(2-Bromophenyl)-N′-(2-cyclopentyl-2-phenylacetyl)acrylohydrazide]
IC50 [1]: 104 nM | IC50 (α-glucosidase inhibition) [1, 2]: moderate inhibition

Compound: O=C(C=Cc1cccc(Br)c1)NNC(=O)C(c1ccccc1)C1CCCC1 (centres unmarked) [Compound 6c, 3-(3-Bromophenyl)-N′-(2-cyclopentyl-2-phenylacetyl)acrylohydrazide]
IC50 [1]: 46.8 nM

Compound: O=C(C=Cc1ccc(Br)cc1)NNC(=O)C(c1ccccc1)C1CCCC1 (centres unmarked) [Compound 6d, 3-(4-Bromophenyl)-N′-(2-cyclopentyl-2-phenylacetyl)acrylohydrazide]
IC50 [1]: 64.8 nM

Compound: Cc1ccc(C=CC(=O)NNC(=O)C(c2ccccc2)C2CCCC2)cc1 (centres unmarked) [Compound 6e, N′-(2-Cyclopentyl-2-phenylacetyl)-3-(p-tolyl)acrylohydrazide]
IC50 [1]: 233 nM | IC50 (α-glucosidase inhibition) [1, 2]: moderate inhibition

IC50 (α-glucosidase inhibition) [1, 2]: no inhibition effect
Compound: O=C(/C=C/c1ccc(F)cc1)NNC(=O)C(c1ccccc1)C1CCCC1 (centres unmarked) [Compound 6f, 3-(4-Fluoro)-N′-(2-cyclopentyl-2-phenylacetyl)acrylohydrazide]

Compound: O=C(C=Cc1cccc([N+](=O)[O-])c1)NNC(=O)C(c1ccccc1)C1CCCC1 (centres unmarked) [Compound 6g, 3-(3-Nitrophenyl)-N′-(2-cyclopentyl-2-phenylacetyl)acrylohydrazide]
IC50 [1]: 28.5 nM

Compound: O=C(C=Cc1ccccc1)NNC(=O)C(c1cc(F)c(F)cc1F)C1CCCC1 (centres unmarked) [Compound 7a, N′-(2-cyclopentyl-2-(2,4,5-trifluorophenyl)acetyl)cinnamohydrazide]
IC50 [1]: 85.2 nM

IC50 [1, 3]: 14.5 nM
Compound: Cc1ccc(C=CC(=O)NNC(=O)C(c2cc(F)c(F)cc2F)C2CCCC2)cc1 (centres unmarked) [Compound 7b, N′-(2-Cyclopentyl-2-(2,4,5-trifluorophenyl)acetyl)-3-(p-tolyl)acrylohydrazide]

IC50 [1, 3]: 49.3 nM
Compound: O=C(C=Cc1ccc(Br)cc1)NNC(=O)C(c1cc(F)c(F)cc1F)C1CCCC1 (centres unmarked) [Compound 7c, 3-(4-Bromophenyl)-N′-(2-cyclopentyl-2-(2,4,5-trifluorophenyl)acetyl)acrylohydrazide]

IC50 [1, 3]: 18.9 nM
Compound: O=C(C=Cc1cccc(Cl)c1)NNC(=O)C(c1cc(F)c(F)cc1F)C1CCCC1 (centres unmarked) [Compound 7d, 3-(3-Chlorophenyl)-N′-(2-cyclopentyl-2-(2,4,5-trifluorophenyl)acetyl)acrylohydrazide]

IC50 (α-glucosidase inhibition) [1, 2]: no effect on inhibition
Compound: COc1ccc(C=CC(=O)NNC(=O)C(c2cc(F)c(F)cc2F)C2CCCC2)cc1 (centres unmarked) [Compound 7e, N′-(2-Cyclopentyl-2-(2,4,5-trifluorophenyl)acetyl)-3-(4-methoxyphenyl)acrylohydrazide]

Compound: O=C(C=Cc1cccc(Br)c1)NNC(=O)C(c1cc(F)c(F)cc1F)C1CCCC1 (centres unmarked) [Compound 7f, 3-(3-Bromophenyl)-N′-(2-cyclopentyl-2-(2,4,5-trifluorophenyl)acetyl)acrylohydrazide]
IC50 [1]: 33.2 nM

Compound: O=C(C=Cc1cccc([N+](=O)[O-])c1)NNC(=O)C(c1cc(F)c(F)cc1F)C1CCCC1 (centres unmarked) [Compound 7g, 3-(3-Nitrophenyl)-N′-(2-cyclopentyl-2-(2,4,5-trifluorophenyl)acetyl)acrylohydrazide]
IC50 [1]: 54.8 nM

Compound: CC(C(=O)NN)c1ccc(-c2ccccc2)c(F)c1 (centres unmarked) [III]
IC50 (α-glucosidase; [4]): 25200 nM

Compound: O=C(/C=C/c1ccc(O)cc1)N1CC(O)C(O)C1 (centres unmarked) [II]
IC50 (α-glucosidase; deacetylsarmentamide derivative): 546000 nM

Compound: CC(C(=O)NNC(=O)c1cccc(Cl)c1)c1ccc(-c2ccccc2)c(F)c1 (centres unmarked) [IV]
IC50 (α-glucosidase; [4]): 10400 nM

Compound: C=CCc1ccc(OC(=O)/C=C/c2ccc(O)cc2)c(-c2cc(CC=C)ccc2OC(=O)/C=C/c2ccc(O)cc2)c1 [I]
Ki (α-glucosidase; Fig. 1): 2480 nM | IC50 (α-glucosidase; cinnamic acid magnolol derivative): 5110 nM

Compound: O=[N+]([O-])c1ccc2cc(-c3ncc(-c4ccccc4F)o3)oc2c1 [VI]
IC50 (α-glucosidase; [5]): 13400 nM

Compound: Fc1ccccc1/C=N/c1ccc2cn[nH]c2c1 [V]
IC50 (α-glucosidase; [5]): 8510 nM
